This is an account of results in patent publication US12491202B2, “Phospholipid ether analogs for imaging and targeted treatment of pediatric solid tumors” (Wisconsin Alumni Research Foundation, priority 2016, dated 2025).

Data set [1] concerns pediatric solid tumor cells. The data set can be described thus: CLR1501 uptake by flow cytometry in pediatric solid tumor cell lines. The format is cell-based, human. The note with it: 5 μM, 16-19 hours incubation, 4 hours wash; Rd, Rh-41, TC-71, TC-106, SK-N-AS, NB-1691, SAOS-2, SJ-GBM2 p<0.01; CHLA-20, Rh-30 p≤0.02. An excerpt:
(§1) FIG. 4 is a bar graph illustrating the preferential uptake of CLR1501, a fluorescent derivative of CLR1404, by pediatric solid cancer cells (rhabdomyosarcoma Rd, Rh-41; Ewing's sarcoma TC-71, TC-106; neuroblastoma SK-N-AS, NB1691; osteosarcoma SAOS-2; glioblastoma SJ-GBM2), and for reference, the adult cancer cell lines PC3 and MT-330, compared to normal human fibroblasts (HUFI), by flow cytometry. Mean±standard error (SE) from minimum 3 experiments per cell line, *P≤0.01. MFI, mean fluorescence intensity; RMS, rhabdomyosarcoma; EWS, Ewing's sarcoma; NB, neuroblastoma; OS, osteosarcoma; GB, glioblastoma, PC, prostate adenocarcinoma. Cells were plated at 5×10^5 cells/ml in triplicates in media containing 5 μM CLR1501 (fluorescent CLR1404). Mean fluorescence intensity corrected for auto-fluorescence was averaged from three experiments±standard deviation.
(§2) Each cell line (5×10^5 cells/ml) was incubated for 16-19 hours with 5 μM CLR1501, then washed with 10% FBS medium for 4 hours. Cells were then measured by flow cytometry (FACSCalibur, BD Biosciences) and analyzed using FlowJo 8.2 (Tree Star, Ashland, Oreg.). Mean fluorescence intensity (MFI) per cell was corrected for autofluorescence (FL1 index) and averaged from three experiments±standard deviation.
For orientation: A flow cytometer gives signals particle by particle.

The test system of data set [2] is normal human pediatric fibroblast (HUFI) cells. Kind of data set: CLR1501 uptake by flow cytometry in normal fibroblasts. Type of data set: cell-based. The note with it: 5 μM, 16-19 hours incubation; compared with pediatric tumor cell lines.
Source text: as §1, §2

Data set [3] concerns Rh30 rhabdomyosarcoma xenograft. Kind of data set: Tumor growth rate, linear mixed effects model, Rh30 xenograft. Type of data set: in vivo, mouse. The note with it: 3.5 μCi/g, excipient slope 0.18, P <0.0001. The protocol: (§3) Rh30, TC-71, TC-106, CHLA-20, NB-1691, and SAOS-2 subcutaneous flank xenografts were induced in mice, as described in Example 2 above. Tumors were measured twice weekly with calipers, and the tumor volume was calculated. When tumors reached a volume of approximately 50 mm^3, mice were randomly assigned to receive either ^131I-CLR1404 in doses of 3.5 μCi/g or an excipient (equimolar ^127I-CLR1404), and measurement of tumor size continued. Survival rates as a function of time were also observed in the xenografted mice.
(§4) A linear mixed effects analysis of predicted growth rate was performed using the tumor size data described above. The results are shown in Table 1 below, and in graphical form in FIG. 10.

Data set [4] concerns TC-71 Ewing's sarcoma xenograft. Kind of data set: Tumor growth rate, linear mixed effects model, TC-71 xenograft. The format is in vivo, mouse. The note with it: 3.5 μCi/g, excipient slope 0.14, P <0.0003. The protocol:
as §3, §4

The subject of data set [5] is TC-106 Ewing's sarcoma xenograft. Kind of data set: Tumor growth rate, linear mixed effects model, TC-106 xenograft. The format is in vivo, mouse. The note with it: 3.5 μCi/g, excipient slope 0.26, P <0.0001. The protocol:
as §3, §4

The test system of data set [6] is CHLA-20 neuroblastoma xenograft. Kind of data set: Tumor growth rate, linear mixed effects model, CHLA-20 xenograft. The format is in vivo, mouse. The conditions noted are these: 3.5 μCi/g, excipient slope 0.13, P 0.0124. The protocol: as §3, §4
Data set [7] deals with NB-1691 neuroblastoma xenograft. Kind of data set: Tumor growth rate, linear mixed effects model, NB-1691 xenograft. The format is in vivo, mouse. The conditions noted are these: 3.5 μCi/g, excipient slope 0.15, P <0.0001. The protocol:
as §3, §4

Data set [8] relates to SAOS-2 osteosarcoma xenograft. Kind of data set: Tumor growth rate, linear mixed effects model, SAOS-2 xenograft. The format is in vivo, mouse. The note with it: 3.5 μCi/g, excipient slope 0.11, P <0.0001. The procedure: as §3, §4
The subject of data set [9] is pediatric solid cancer xenografts. The data set can be described thus: Tumor volume, survival and toxicity in pediatric solid cancer xenograft NSG models. Type of data set: in vivo, mouse. The conditions noted are these: 3.5 μCi/g. The protocol: as §3
Data set [10] deals with xenografted pediatric solid tumor tissue (Rh30, TC-71, CHLA-20, NB-1691). The data set can be described thus: In vivo uptake of 124I-CLR1404 by PET/CT in xenografted mice. On the set-up: species or system mouse. The conditions noted are these: NSG mice, 8-13 μCi/g via tail vein injection. The procedure: Specifically, […] with one of four different pediatric tumor cell lines (CHLA-20 (neuroblastoma), NB-1691 (neuroblastoma), TC-71 (Ewing sarcoma), and Rh-30 (rhabdomyosarcoma). For each of the sixteen xenografted mice, 100 μl cell suspension containing 3×10^6 tumor cells (>95% viability, passage 5-25) was inoculated into subcutaneous tissue of the left flank of a 6-8 week-old NSG mouse (NOD.Cg-Prdc^scidII2rg^tm1Wj1/SzJ, Jackson Laboratory, Bar Harbor, Me.). Once xenograft tumors measured a minimum of about 7×7 mm, the mice received ^124I-CLR1404 at 8-13 μCi/g via tail vein injection. After an uptake period, PET/CT imaging was performed on the mice at 5 and 6 time-points. Following image acquisition, the images were reconstructed, co-registered, resampled, rescaled, and corrected for partial volume effects (PVE), and masked.

For `C[N+](C)(C)CCOP(=O)([O-])OCCCCCCCCCCCCCCCCCCc1ccc(C2=C3C=CC=[N+]3[B-](F)(F)n3cccc32)cc1` [CLR1501], the “CLR1501 uptake (mean fluorescence intensity) versus normal pediatric fibroblast (HUFI) cells” value in data set [1] is listed as “significantly higher”. Further, in data set [2], the “CLR1501 uptake in normal cells” value is “much less uptake”.
For `C[N+](C)(C)CCOP(=O)([O-])OCCCCCCCCCCCCCCCCCCc1ccc([131I])cc1` [^131I-CLR1404], the “Slope log volume (prediction of the tumor growth rate)” value in [3] was 0.06; in data set [4], 0.08; in data set [5], 0.10; in data set [6], 0.09; in data set [7] it was 0.09; in data set [8] it was 0.08. Also, the Toxicity result in [9] (xenografted mice) is “low toxicity”. For the same compound, the “Mean tumor volumes versus excipient” value in data set [9] (Rh30, TC-71, CHLA-20 and NB-1691 xenografts) is on record as “decreased mean tumor volumes”. Further, the “Animal survival versus excipient” value in [9] (four groups, statistically significant in Ewing's sarcoma and rhabdomyosarcoma xenografts) is “extended animal survival”.
Regarding `C[N+](C)(C)CCOP(=O)([O-])OCCCCCCCCCCCCCCCCCCc1ccc([124I])cc1` [^124I-CLR1404], in [10], the “Uptake into xenografted tumor tissue (PET/CT)” value is “differential uptake”.
